What was measured:
[1] = target: T1, amyloid β protein (Homo sapiens, UniProt P05067); experiment: Staining test on a brain section of an Alzheimer disease patient (amyloid β protein); assay type: binding, human (Alzheimer disease patient); conditions: 100 μM compound in 50% ethanol, 10 minutes, fluorescence microscopy
T1 construct: from tissue; host or cells: paraffin-embedded human brain sections (temporal lobe, hippocampus) of Alzheimer disease patients
Description: (1) Brain specimens at the temporal lobe and the hippocampus of patients to which a definitive diagnosis of Alzheimer disease had been given, and those of normal senile persons were used. The specimens were given by our coworker, Fukushimura Hospital, Longevity Medicine Institute, and we were given their consent of use of the specimens for our study purpose by the bereaved of the patients (Fukushimura Hospital Ethical Review Board Approval No. 20).
(2) The paraffin-embedded brain tissue was cut into slices having a thickness of 6 μm or 8 μm, and extended and dried on a slide. The paraffin brain section was processed for paraffin removal in xylene twice for 10 minutes, 100% ethanol twice for 5 minutes, 90% ethanol for 5 minutes and running water for 10 minutes in that order.
(3) For pretreatment prior to the staining treatment with a compound of the invention, the sections were processed for autofluorescence removal with lipofuscin. First, the paraffin-removed sections were dipped in 0.25% KMnO4 solution for 20 minutes. These were washed with PBS, twice for 2 minutes, then dipped in 0.1% K2S2O5/oxalic acid solution for about 5 seconds, and then further washed with PBS, three times for 2 minutes.
(4) About 150 μl of a 100 μM solution of a compound of the invention dissolved in 50% ethanol was dropwise applied to the section and reacted for 10 minutes. After dipped five times in tap water, the section was entrapped with Fluor Save Reagent (Calbiochem), and analyzed through microscopy with a fluorescence microscope (Nikon, Eclipse 80i). The images were taken with a digital camera (Nikon Dxm 1200F or Photometrics' Cool SNAP ES).

[2] = test system: histidine-requiring Salmonella typhimurium TA100 and TA98 strains; experiment: Mutagenicity test (reverse mutation test); assay type: cell-based
Method: In view of their use, it is desirable that the compounds of the invention have no mutagenicity or have little mutagenicity to a level causing no problem. For investigating the gene mutagenesis of the compounds of the invention, herein carried out was a reverse mutation test with histidine-requiring Salmonella typhimurium TA100 and TA98 strains. Two tests were carried out. One is a test for dose determination test; and the other is for mutagenicity.
The test methods and the mutagenicity of the compounds of the invention are mentioned below. In the dose determination test, six doses of 0.160, 0.800, 4.00, 20.0, 100 and 500 μg/plate (common ratio 5) were tried.
As a result of the dose determination test, when the mutagenicity of the test compound was admitted, then the actual test for mutagenicity was carried out, using the dose capable of giving an accurate dose-reaction curve. When no mutagenicity of the test compound was admitted in the dose determination test and when the growth inhibition of the test cells was admitted therein, then the dose to present the growth inhibition was taken as the maximum dose; and when the growth inhibition was not admitted, then a dose of 5000 μg/plate was taken as the maximum dose. With that, the actual test for mutagenicity was carried out on the level of 6 doses (common ratio 2).
First, a test compound was dissolved or suspended in DMSO, then diluted in order to prepare test compound liquids having a varying concentration.
100 μl of a test compound liquid or a negative control (DMSO) solution was put into a sterilized test tube. Then, for the case in the absence of a metabolic activation system (−S9mix), 500 μl of 0.1 mol/liter sodium-phosphate buffer (pH 7.4) was added to it; and for the case in the presence of a metabolic activation system (+S9mix), 500 μl of S9mix was added to it.
Next, 100 μl of the test strain suspension that had been cultivated with shaking at 37° C. for 8 hours was added to it, and preincubated in a shaking thermostat at 37° C. for 20 minutes. After shaken, 2 ml of top agar was added to it, and the contents were mixed.
Next, the mixture was poured onto a minimal glucose agar plate medium (plate) and spread uniformly thereon, then the top agar was solidified, and the plate was transferred into a thermostat and incubated at 37° C. for 48 hours.
Then, the number of the colonies grown through reverse mutation was counted.
For counting it, […]. After area correction and miss-counting correction, the number of the colonies was computed. When the colony analyzer could not be used owing to the deposition of the test compound or the cell growth inhibition, then the number of the colonies was counted with the naked eye.
In case where the number of the colonies through reverse mutation increased two times or more that of the negative control and where the dose dependency or the reproducibility of the increase was admitted, then the tested sample was decided as positive. When the sample was decided as positive, then the relative activity that indicates the relative comparative value of the intensity of the mutagenicity of the test compound was obtained according to the following formula:
Relative Activity={(number of colonies per plate having the concentration)−(number of colonies per negative control plate)}/the value of concentration (mg/plate).

[3] = Acute toxicity test, intravenous administration to mice; assay type: in vivo; conditions: mice observed for 7 days
Method: The compounds of the invention were tested for their acute toxicity through intravenous administration thereof to mice. Four Crj:CD1 male mice formed one test group, and some test groups of those mice were used (the mean body weight of the mice of each group was from 31 to 32 g). A test compound was dissolved in a mixture of 1 N HCl, polyethylene glycol-400 and distilled water, or dissolved in DMSO, and then diluted with distilled water. This was administered to each mouse via its tail vein.

[4] = irrespective of the absence or presence of S9mix

T1 sequence (P05067 672-713 limits assumed): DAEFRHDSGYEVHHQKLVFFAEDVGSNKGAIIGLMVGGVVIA

Row | SMILES | binding to amyloid β protein in the brain section of an Alzheimer disease patient [1] | also measured
1 | Cc1ccc2c(c1)C(C)(C)[C@@]1(/C=C/C=C/c3ccc(N(C)C)cc3)NC(=O)CCN21 (stereo in doubt) [THK-585, 10a-[4-(4-dimethylamino-phenyl)-buta-1,3-dienyl]-8,10,10-trimethyl-3,4,10,10a-tetrahydro-1H-pyrimido[1,2-a]indol-2-one] | bound to the amyloid β protein | –
2 | N#C/C(=C\c1ccc(N2CCOCC2)o1)c1nc2ccccc2[nH]1 [THK-203, 2-(1H-benzimidazol-2-yl)-3-(5-morpholin-4-yl-furan-2-yl)-acrylonitrile] | bound to the amyloid β protein | –
3 | CN1CCN(c2ccc(/C=C(\C#N)c3nc4ccccc4[nH]3)o2)CC1 [THK-207, 2-(1H-benzimidazol-2-yl)-3-[5-(4-methyl-piperazin-1-yl)-furan-2-yl]-acrylonitrile] | bound to the amyloid β protein | –
4 | CN(C)c1ccc(/C=C\C=C2C(=O)c3ccccc3C2=O)cc1 [THK-248, 2-[3-(4-dimethylamino-phenyl)-allylidene]-indane-1,3-dione] | bound to the amyloid β protein | –
5 | CN(C)c1ccc(-c2nnc(-c3sc4cc(Cl)ccc4c3Cl)o2)cc1 [THK-262, [4-[5-(3,6-dichloro-benzo[b]thiophen-2-yl)-[1,3,4]oxadiazol-2-yl]-phenyl]-dimethylamine] | bound to the amyloid β protein | –
6 | O=C1Nc2ccc(Cl)cc2/C1=C/c1ccc(N2CCOCC2)cc1 [THK-276, 5-chloro-3-(4-morpholin-4-yl-benzylidene)-1,3-dihydroindol-2-one] | bound to the amyloid β protein | –
7 | C(=C\c1nc2c(ccc3ccccc32)s1)/c1ccc(N2CCOCC2)cc1 [THK-281, 2-[2-(4-morpholin-4-yl-phenyl)-vinyl]naphthol[1,2-d]thiazole] | bound to the amyloid β protein | –
8 | O=C1Nc2ccc(Cl)cc2/C1=C/c1ccc(N2CCOCC2)s1 [THK-308, 5-chloro-3-(5-morpholin-4-yl-thiophen-2-ylmethylene)-1,3-dihydroindol-2-one] | bound to the amyloid β protein | –
9 | CC1(C)c2ccccc2N2CCC(=O)NC21/C=C/c1ccc(N2CCOCC2)cc1 (centres unmarked) [THK-336] | – | relative activity [2, 4]: minus
10 | c1csc(-c2nnc(-c3ccc(N4CCOCC4)cc3)o2)c1 [THK-383, 4-[4-(5-thiophen-2-yl-[1,3,4]oxadiazol-2-yl)-phenyl]-morpholine] | bound to the amyloid β protein | –
11 | COc1ccccc1-c1nnc(-c2ccc(N3CCOCC3)cc2)o1 [THK-385] | bound to the amyloid β protein | –
12 | FCCOc1ccc2nc(/C=C/c3cnc(N4CCOCC4)s3)oc2c1 [THK-525, 6-(2-fluoro-ethoxy)-2-[2-(2-morpholin-4-yl-thiazol-5-yl)-vinyl]-benzoxazole] | bound to the amyloid β protein | Maximum Permissible Dose [3]: ≧10 mg/kg; relative activity [2, 4]: minus
13 | CN(C)c1ccc(/C=C/C23NC(=O)CN2c2ccc(Br)cc2C3(C)C)cc1 (centres unmarked) [THK-556, 7-bromo-9a-[2-(4-dimethylamino-phenyl)-vinyl]-9,9-dimethyl-9,9a-dihydro-1H-imidazo[1,2-a]indol-2-one] | bound to the amyloid β protein | –
14 | CN(C)c1ccc(/C=C/C23NC(=O)CCN2c2ccc(Br)cc2C3(C)C)cc1 (centres unmarked) [THK-558, 8-bromo-10a-[2-(4-dimethylamino-phenyl)-vinyl]-10,10-dimethyl 1-3,4,10,10a-tetrahydro-1H-pyrimido[1,2-a]indol-2-one] | bound to the amyloid β protein | –
15 | CC1CN2c3ccccc3C(C)(C)C2(/C=C/c2ccc(N(C)C)cc2)NC1=O (centres unmarked) [THK-559, 10a-[2-(4-dimethylamino-phenyl)-vinyl]-3,10,10-trimethyl-3,4,10,10a-tetrahydro-1H-pyrimido[1,2-a]indol-2-one] | bound to the amyloid β protein | –
16 | CN(C)c1ccc(/C=C/C23NC(=O)CN2c2ccccc2C3(C)C)cc1 (centres unmarked) [THK-562] | bound to the amyloid β protein | –
17 | CCN(CC)c1ccc(/C=C/C23NC(=O)CN2c2ccccc2C3(C)C)cc1 (centres unmarked) [THK-563] | bound to the amyloid β protein | –
18 | Cc1ccc2c(c1)C(C)(C)C1(/C=C/C=C/c3ccc(N(C)C)cc3)NC(=O)CCN21 (centres unmarked) [THK-565, 10a-[4-(4-dimethylamino-phenyl)-buta-1,3-dienyl]-8,10,10-trimethyl-3,4,10,10a-tetrahydro-1H-pyrimido[1,2-a]indol-2-one] | bound to the amyloid β protein | –
19 | N#CC(C#N)=Cc1ncc(/C=C/c2nc3ccc(OCC(CO)CF)cc3o2)s1 (centres unmarked) [THK-683] | – | relative activity [2, 4]: minus
20 | CN1CCN(c2ncc(/C=C/c3nc4ccc(OC(CO)CF)cc4o3)s2)CC1 (centres unmarked) [THK-707, (E)-6-[(1-fluoromethyl-2-hydroxy)ethoxy]-2-[2-[2-(4-methylpiperazin-1-yl)thiazol-5-yl]ethenyl]benzoxazole] | – | Maximum Permissible Dose [3]: ≧10 mg/kg; relative activity ([2]; in the presence of S9mix): weak
21 | OCC(CF)Oc1ccc2nc(/C=C/c3cnc(N4CCCCC4)s3)oc2c1 (centres unmarked) [THK-713] | – | Maximum Permissible Dose [3]: ≧10 mg/kg; relative activity [2, 4]: minus
22 | OCC(CF)Oc1ccc2nc(/C=C/c3cnc(N4CCCC4)s3)oc2c1 (centres unmarked) [THK-752, (E)-6-[(1-fluoromethyl-2-hydroxy)ethoxy]-2-[2-[2-(pyrrolidin-1-yl)-thiazol-5-yl]ethenyl]benzoxazole] | The white space arrow indicates amyloid β protein | Maximum Permissible Dose [3]: ≧10 mg/kg; relative activity [2, 4]: minus
23 | OCC(CF)Oc1ccc2nc(/C=C/c3cnc(N4CCCOC4)s3)oc2c1 (centres unmarked) [THK-757, (E)-6-[(1-fluoromethyl-2-hydroxy)ethoxy]-2-[2-[2-([1,3]oxadinan-3-yl)-thiazol-5-yl]ethenyl]benzoxazole] | – | Maximum Permissible Dose [3]: ≧10 mg/kg
24 | OCC(CF)Oc1ccc2nc(/C=C/c3cnc(N4CCCCCC4)s3)oc2c1 (centres unmarked) [THK-765, (E)-6-[(1-fluoromethyl-2-hydroxy)ethoxy]-2-[2-[2-(homopiperidin-1-yl)thiazol-5-yl]ethenyl]benzoxazole] | – | Maximum Permissible Dose [3]: ≧10 mg/kg
25 | OCC(CF)Oc1ccc2nc(/C=C/c3cnc(N4CCCOCC4)s3)oc2c1 (centres unmarked) [THK-766, (E)-6-[(1-fluoromethyl-2-hydroxy)ethoxy]-2-[2-(2-homomorpholinothiazol-5-yl)ethenyl]benzoxazole] | The white space arrow indicates amyloid β protein | Maximum Permissible Dose [3]: ≧10 mg/kg
